Reference: patent US8350042B2, “Antiviral compounds for the treatment of HCV infection” (The Regents of the University of California, priority 2008, dated 2013)

Tested on: BM4-5 FEO replicon (genotype 1b HCV)
Assay: HCV replicon assay
Conditions: cells stably expressing BM4-5 FEO replicon, 48 hours incubation
Protocol: HCV replicon assays were used to measure compound activity in cells. The impact of compounds on HCV replicon replication was assessed, using a method that was previously described (ref.: Wyles, D. L., Kaihara, K. A., Vaida, F. & Schooley, R. T. Synergy of small molecular inhibitors of hepatitis C virus replication directed at multiple viral targets. J Virol 81, 3005-8 (2007).) in cells stably expressing the BM4-5 FEO replicon in 96-well plates (10,000 cells/well). […] For testing the effect of compounds on the HCV replicon cells were incubated with compound for 48 hours and the results expressed as the mean (±SEM) of the relative light units for each condition. A sigmoidal dose response curve was then fitted to the data using Prism4.0 (GraphPad Software).

CC(=O)c1ccc(C(=O)N[C@@H](CCCCN)C(=O)N2C[C@H](N)C[C@H](N)C2)cc1 [Formula III]
Inhibition of HCV in a subgenomic replicon: inhibition of HCV
